Patent publication US8937068B2, “Pyridopyrazine derivatives and their use” (Zentaris GmbH, priority 2005, dated 2015)

Tests used:
p38alpha = p38alpha (Homo sapiens (Human), UniProt Q16539); test: Cell-free kinase assay (ALPHA technology), p38alpha; format: biochemical; settings: 10 μM ATP
BxPC3 = test: XTT assay, anti-proliferative effect, BxPC3; format: cell-based; settings: Homo sapiens, BXPC-3; 45 h incubation
Experimental: The principle of this test is based on the intracellular reduction of the tetrazolium dye XTT (sodium 3′-[1-(phenylaminocarbonyl)-3,4-tetrazolium]-bis(4-methoxy-6-nitro)benzene sulfonic acid, Sigma) to a formazan dye by mitochondrial dehydrogenases. The dye is only formed by metabolically active cells and its photometrically measurable intensity is a quantitative indicator for the presence of living cells. The reduction of dye formation by incubation of the cells with substances serves as a parameter for the anti-proliferative effect.
The tumour cell lines (ATCC) were injected into 96-well microtitre plates in a defined cell number (5000 cells/well for BxPC3 and Hct116; 10000 cells/well for MDA MB468) and then incubated overnight in an incubator at 37° C., 5% CO2 and 95% air humidity. The test substances were prepared as stock solutions (10 mM) in DMSO. […] The cell plates were then incubated for 45 h in an incubator at 37° C., 5% CO2 and 95% air humidity.
For the detection reaction the substrate XTT was mixed with PMS (N-Methyl dibenzopyrazine methylsulfate, Sigma) and added to the cells so that a final concentration of 325 μg XTT/ml and 2.5 μg PMS/ml was obtained. It was then incubated for 3 h at 37° C., 95% air humidity. The formazan salt formed by the cellular dehydrogenases could then be quantified by adsorption at 490 nm.
The % inhibition value was evaluated by means of the following formula from the values for the optical densities measured in each case at 490 nm:
Eight determinations were made for each control and two for the substance samples. The 0% control contains no cells, the 100% control (proliferation control) contains no test substance. The EC50 values were determined using GraphPadPrism.

Chain of p38alpha (Q16539 whole entry): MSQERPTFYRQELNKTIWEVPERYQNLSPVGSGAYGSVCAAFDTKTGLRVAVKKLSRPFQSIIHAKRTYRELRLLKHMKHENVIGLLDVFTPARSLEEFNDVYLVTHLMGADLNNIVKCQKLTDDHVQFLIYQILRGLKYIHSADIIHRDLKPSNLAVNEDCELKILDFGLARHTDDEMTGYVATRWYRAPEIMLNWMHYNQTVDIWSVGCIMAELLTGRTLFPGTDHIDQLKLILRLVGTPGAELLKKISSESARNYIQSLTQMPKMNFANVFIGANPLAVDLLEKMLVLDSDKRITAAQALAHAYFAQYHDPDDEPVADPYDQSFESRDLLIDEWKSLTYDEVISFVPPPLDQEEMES

| IC50 (p38alpha) | EC50 (BxPC3) | melting point | SMILES |
| --- | --- | --- | --- |
| > 100 µM | – | – | CCNC(=O)Nc1ccc2ncc(-c3ccc(O)c(OC)c3)nc2n1.Cc1ccc(S(=O)(=O)O)cc1 [Compound 183, 1-Ethyl-3-[3-(4-hydroxy-3-methoxy-phenyl)-pyrido[2,3-b]pyrazin-6-yl]-urea p-Toluolsulfonate] |
| > 100 µM | 12 µM | 230 °C (dec.) | C=CCNC(=S)Nc1ccc2ncc(-c3ccc(O)cc3)nc2n1 [Compound 30, 1-allyl-3-[3-(4-hydroxy-phenyl)-pyrido[2,3-b]pyrazin-6-yl]-thiourea] |
| > 100 µM | – | – | CCNC(=O)Nc1ccc2ncc(-c3cnn(C)c3)nc2n1 [Compound 173, 1-Ethyl-3-[3-(1-methyl-1H-pyrazol-4-yl)-pyrido[2,3-b]pyrazin-6-yl]-urea] |
| > 100 µM | 10 µM | – | CCNC(=O)Nc1ccc2ncc(-c3ccc(O)c(OC)c3)nc2n1 [Compound 124, 1-Ethyl-3-[3-(4-hydroxy-3-methoxy-phenyl)-pyrido[2,3-b]pyrazin-6-yl]-urea] |
| 18.1 µM | 0.9 µM | – | CCNC(=O)Nc1ccc2ncc(Nc3ccc(C)cc3)nc2n1 [Compound 150, 1-Ethyl-3-(3-p-tolylamino-pyrido[2,3-b]pyrazin-6-yl)-urea] |
| > 100 µM | > 50 µM | – | O=C(NCCCCO)Nc1ccc2ncc(-c3ccccc3)nc2n1 [Compound 146, 1-(4-Hydroxy-butyl)-3-(3-phenyl-pyrido[2,3-b]pyrazin-6-yl)-urea] |
